Experiments:
Assay type in all cases: in vivo, rat (Sprague Dawley)
[1] = tested on: Ibuprofen-induced lesions; experiment: Ibuprofen-induced gastric lesions in the rat, protective effect of ZAC; details: ibuprofen single 200 mg/kg dose, mean ± SD; for Macroscopic index: n 10, control 2.4 ± 0.3; for Microscopic index: scale 0 to 5, n 5, control 2.8 ± 0.4
Description: (§1) In view of the more or less serious gastric intolerance to the different anti-inflammatory drugs, the possibility of inhibiting this side effect by way of the protective action of zinc […]) has been considered. Therefore, the protective effect of ZAC against gastric lesions induced by the most characteristic NSAIDs has been studied. The animal of election was the rat (Sprague Dawley), which was sacrificed after treatment with ZAC and NSAID. The stomach was extirpated, and macro and microscopic evaluations were made. The macroscopic evaluation was made following the method of Adami (1964, Arch. Int. Pharmacodyn., 147: 113-45) with slight modifications, consisting of evaluating the gravity and extension of the lesions, using a points system evaluating the lesions according to the number and/or size thereof. 0 - no lesion 1 - irritation or presence of a hemorrhagic area 2 - from 1 to 5 small ulcers 3 - many small ulcers (more than 5) or 1 large one 4 - many large ulcers 5 - perforated ulcer The overall value of the lesions is obtained by adding up the score of the lesions determined. Half of the stomachs of each animal group was taken for hystological processing, the microscopic lesions being valued according to a scale of 0 to 5, 0 being a lesion-free mucous membrane and 5 representing multiple erosions with hemorrhagic subfusions. a single 200 mg/kg dose was administered. In both cases, ZAC was tested at dosages of: 50, 100 and 150 mg/kg and a control group received water.

[2] = tested on: Aspirin-induced lesions; experiment: Aspirin-induced gastric lesions in the rat, protective effect of ZAC; details: aspirin two doses of 200 mg/kg p.o. 12 hours apart, mean ± SD, n 10, p<0.01; for Macroscopic index: control 3.4 ± 0.2; for Microscopic index: scale 0 to 5, control 3.0 ± 0.3
Description: as §1, with “two doses of” for “a single”, “p.o. were administered spaced apart by 12 hours.” for “dose was administered.”

[3] = tested on: Indomethacin-induced lesions; experiment: Indomethacin-induced gastric lesions in the rat, protective effect of ZAC; details: ZAC 200 mg/kg, indomethacin total 20 mg/kg in two doses of 10 mg/kg 12 hours apart, mean ± SD, p<0.01
Description: as §1, with “a single 200 mg/kg dose was administered. In both cases, ZAC was tested at dosages of: 50, 100 and 150 mg/kg and a control group received water.” left out

[4] = tested on: Phenylbutazone-induced lesions; experiment: Phenylbutazone-induced gastric lesions in the rat, protective effect of ZAC; details: phenylbutazone total dose 80 mg/kg in two halves 2 hours apart, mean ± SD, n 10, control 2.8 ± 0.4, p<0.01
Description: In view of the more or less serious gastric intolerance to the different anti-inflammatory drugs, the possibility of inhibiting this side effect by way of the protective action of zinc acexamate (ZAC) has been considered. Therefore, the protective effect of ZAC against gastric lesions induced by the most characteristic NSAIDs has been studied. The animal of election was the rat (Sprague Dawley), which was sacrificed after treatment with ZAC and NSAID. The stomach was extirpated, and macro and microscopic evaluations were made. The macroscopic evaluation was made following the method of Adami (1964, Arch. Int. Pharmacodyn., 147: 113-45) with slight modifications, consisting of evaluating the gravity and extension of the lesions, using a points system evaluating the lesions according to the number and/or size thereof. 0 - no lesion 1 - irritation or presence of a hemorrhagic area 2 - from 1 to 5 small ulcers 3 - many small ulcers (more than 5) or 1 large one 4 - many large ulcers 5 - perforated ulcer
The overall value of the lesions is obtained by adding up the score of the lesions determined.
An additional, anti-ulcer activity index was calculated for phenylbutazone, obtained by expressing the lesion indexes as an inhibition percentage relative to the control group. The dose-response curve was determined from the percentages and the theoretical ED₅₀ was determined from the curve.
A total dose of 80 mg/kg of phenylbutazone was administered, half at the start of the experiment and the other half after 2 hours. The ZAC doses used were 75, 150 and 300 mg/kg. The animals were sacrificed 4 hours after the last ZAC administration.

## zinc acexamate [ZAC]
[1]; ZAC 50 mg/kg, p<0.01
  Macroscopic index: 1.6 ± 0.4
[1]; ZAC 50 mg/kg, p<0.05
  Microscopic index: 2.2 ± 0.2
[1]; ZAC 100 mg/kg, p<0.01
  Macroscopic index: 1.7 ± 0.3
[1]; ZAC 100 mg/kg, NS
  Microscopic index: 2.4 ± 0.2 NS
[1]; ZAC 150 mg/kg, p<0.01
  Macroscopic index: 1.5 ± 0.2
  Microscopic index: 2.0 ± 0.03
[2]; ZAC 50 mg/kg
  Macroscopic index: 2.3 ± 0.3
  Microscopic index: 1.8 ± 0.2
[2]; ZAC 100 mg/kg
  Macroscopic index: 2.1 ± 0.3
  Microscopic index: 2.0 ± 0.2
[2]; ZAC 150 mg/kg
  Macroscopic index: 1.9 ± 0.3
  Microscopic index: 2.3 ± 0.2
[3]; n 10, control 4.3 ± 0.4
  Macroscopic index: 1.8 ± 0.3
[3]; scale 0 to 5, n 5, control 4.0 ± 0.7
  Microscopic index: 5 2.1 ± 0.2
[4]; ZAC 75 mg/kg
  Macroscopic index: 1.3 ± 0.5
[4]; ZAC 150 mg/kg
  Macroscopic index: 0.4 ± 0.3
[4]; ZAC 300 mg/kg
  Macroscopic index: 2.0 ± 0.2

Reference: patent EP0369088A1, “Use of zinc acexamate in the prophylaxis of gastropathy induced by non-steroidal anti-inflammatory drugs” (LABORATORIOS VINAS S.A., priority 1988, dated 1990)
